Results: patent US7358074B2, “Human phosphatase RET31, and variants thereof” (Bristol-Myers Squibb Company, priority 2000, dated 2008)
“Also recorded” adds a separate entry of the source.

Key:
[1] = target: T1, M1 to T302 C-terminal RET31 (Homo sapiens, UniProt Q9BY84, I6V/M5I/N284S); test: phosphatase activity assay, hydrolysis of para-nitrophenylphosphate (pNPP); type: biochemical; settings: 2 mM orthovanadate; pNPP substrate; FIG. 36
T1 construct: made in house
T1 sequence (Q9BY84 1-302 M5I/I6V/N284S): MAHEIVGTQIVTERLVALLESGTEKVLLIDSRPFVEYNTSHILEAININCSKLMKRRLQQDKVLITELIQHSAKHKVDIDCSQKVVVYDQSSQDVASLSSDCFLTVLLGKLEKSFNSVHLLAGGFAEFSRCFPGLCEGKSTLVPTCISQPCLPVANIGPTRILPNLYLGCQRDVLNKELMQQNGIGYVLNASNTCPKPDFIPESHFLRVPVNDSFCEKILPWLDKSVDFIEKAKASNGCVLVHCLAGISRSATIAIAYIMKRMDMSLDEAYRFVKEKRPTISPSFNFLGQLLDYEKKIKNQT
Experimental: (§1) The phosphatase activity for the full-length RET31 and the M1 to T302 C-terminal RET31 GST fusion proteins were measured by assaying the ability of the proteins to hydrolyze para-nitrophenylphosphate, a compound known to be a substrate for phosphatases, as described in Krejsa, C. et al., J. Biol. Chem. Vol. 272, p. 11541-11549, 1997 (which is hereby incorporated in its entirety herein). The proteins are incubated with para-nitrophenylphosphate in a solution containing 10 mM imidazole, pH 7.0, 1 mM EDTA, 2 mM dithiothreitol, and 5 μg/ml BSA for 2 hours with and without sodium orthovanadate (Fisher) prepared in distilled water. The progress of the phosphatase reaction in a 96-well format was monitored by the OD405 nm on a plate reader (Molecular Devices) at 10-minute intervals in the kinetic mode.
(§2) The RET31-GST full length (FL), M1 to T302 C-terminal RET31-GST (trunc), or GST alone were purified and assayed for cleavage of para-nitrophenylphosphate (pNPP). The bars represent the average of triplicate determinations, and the standard deviations are as shown. Each protein preparation was assayed in the absence and presence of 2 mM of the phosphatase inhibitor orthovanadate. In addition, the full length and truncated protein phosphatase activity was blocked by the phosphatase inhibitor vanadate, as shown.

full-length RET31 = target: T2, full-length RET31 (Homo sapiens, UniProt Q9BY84, C584R/N284S/T302A); test: as above; type: biochemical; settings: 2 mM orthovanadate; pNPP substrate; FIG. 36
T2 construct: made in house
T2 sequence (Q9BY84 with tags, fused parts or gaps N284S/T302A/C584R): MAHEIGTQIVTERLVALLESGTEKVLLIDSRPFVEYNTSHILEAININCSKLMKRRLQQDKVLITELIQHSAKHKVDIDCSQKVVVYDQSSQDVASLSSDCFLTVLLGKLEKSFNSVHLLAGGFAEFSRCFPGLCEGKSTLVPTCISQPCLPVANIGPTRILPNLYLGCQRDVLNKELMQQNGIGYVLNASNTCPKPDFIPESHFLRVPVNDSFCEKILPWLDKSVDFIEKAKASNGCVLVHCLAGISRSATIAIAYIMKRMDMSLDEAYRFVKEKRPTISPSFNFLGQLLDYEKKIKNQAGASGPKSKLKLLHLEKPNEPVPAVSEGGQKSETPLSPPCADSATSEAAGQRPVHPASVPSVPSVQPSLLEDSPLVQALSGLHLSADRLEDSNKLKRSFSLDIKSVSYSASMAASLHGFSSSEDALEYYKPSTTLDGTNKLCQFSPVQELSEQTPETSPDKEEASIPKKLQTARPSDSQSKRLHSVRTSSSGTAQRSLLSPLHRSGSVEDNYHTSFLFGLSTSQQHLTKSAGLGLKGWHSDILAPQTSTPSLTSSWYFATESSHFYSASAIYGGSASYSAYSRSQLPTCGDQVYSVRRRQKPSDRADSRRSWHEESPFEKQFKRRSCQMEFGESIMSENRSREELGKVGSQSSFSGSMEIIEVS
Experimental: as §1, §2

RET31 = test: para-nitrophenylphosphate (pNPP) phosphatase activity assay of purified RET31-GST fusion proteins; type: biochemical, human
Experimental: The bars represent the average of triplicate determinations, and the standard deviations are as shown. Each protein preparation was assayed in the absence and presence of 2 mM orthovanadate (”-van”). […] The phosphatase assays were performed as described in Example 57 herein.
In addition to assaying the full-length RET31 polypeptide (SEQ ID NO:109), a C-terminal deletion of RET31 was also assayed corresponding to amino acids M1 to T302 of SEQ ID NO:109).

human lung fibroblasts = test: human lung fibroblast proliferation assay, Alamar Blue; type: cell-based; settings: 3 days in basal medium, expected (should show)
Experimental: Human lung fibroblasts are obtained from Clonetics (San Diego, Calif.) and maintained in growth media from Clonetics. Dermal microvascular endothelial cells are obtained from Cell Applications (San Diego, Calif.). For proliferation assays, the human lung fibroblasts and dermal microvascular endothelial cells can be cultured at 5,000 cells/well in a 96-well plate for one day in growth medium. The cells are then incubated for one day in 0.1% BSA basal medium. After replacing the medium with fresh 0.1% BSA medium, the cells are incubated with the test proteins for 3 days. Alamar Blue (Alamar Biosciences, Sacramento, Calif.) is added to each well to a final concentration of 10%. The cells are incubated for 4 hr. Cell viability is measured by reading in a CytoFluor fluorescence reader. For the PGE2 assays, the human lung fibroblasts are cultured at 5,000 cells/well in a 96-well plate for one day. […]

[Na+].[Na+].[Na+].[O]=[V]([O-])([O-])[O-] [orthovanadate, sodium orthovanadate]
effect of phosphatase inhibitor on phosphatase activity [1]: blocked
effect of phosphatase inhibitor on phosphatase activity (full-length RET31): blocked

[O]=[V]([O-])([O-])[O-] [vanadate]
inhibition of RET31 phosphatase activity (RET31; 2 mM orthovanadate, full-length and M1 to T302 RET31-GST): blocked; also recorded: specifically inhibited

FGF-2: FGF-2 (basic FGF), comparison growth factor
concentration showing stimulation of growth of fibroblasts (human lung fibroblasts): 10 to 2500 ng/mL

B1: M1 to T302 RET31 C-terminal deletion mutant: C-terminal deletion of RET31 corresponding to amino acids M1 to T302 of SEQ ID NO:109, GST fusion (protein, listed as Homo sapiens)
chain: MAHEMIGTQIVTERLVALLESGTEKVLLIDSRPFVEYNTSHILEAININCSKLMKRRLQQDKVLITELIQHSAKHKVDIDCSQKVVVYDQSSQDVASLSSDCFLTVLLGKLEKSFNSVHLLAGGFAEFSRCFPGLCEGKSTLVPTCISQPCLPVANIGPTRILPNLYLGCQRDVLNKELIQQNGIGYVLNASYTCPKPDFIPESHFLRVPVNDSFCEKILPWLDKSVDFIEKAKASNGCVLVHCLAGISRSATIAIAYIMKRMDMSLDEAYRFVKEKRPTISPNFNFLGQLLDYEKKIKNQT
modifications: GST fusion partner lacks entry
increase in phosphatase activity relative to the full-length RET31 polypeptide (RET31; pNPP substrate, GST fusion proteins): five fold increase
phosphatase activity via cleavage of the NPP substrate (RET31; purified GST fusion protein, pNPP substrate, compared to purified GST alone): demonstrated phosphatase activity
